Source: EPA's ToxValDB 9.5 (doi:10.2903/j.efsa.2014.3817)

Tests used:
[1] = tested on: Anas platyrhynchos; conditions: acute; oral; unspecified; mortality
[2] = tested on: Apis mellifera; conditions: acute, mortality
[3] = tested on: Canidae; conditions: chronic; duration: 1 years; oral; Dog Other; clinical chemistry
[4] = tested on: Colinus virginianus; conditions: reproduction developmental
[5] = tested on: Daphnia magna; conditions: chronic/long-term; duration: 21 days; reproduction
[6] = tested on: Folsomia candida; conditions: chronic/long-term
[7] = tested on: Oncorhynchus mykiss; conditions: chronic/long-term; duration: 90 days; other
[8] = tested on: Oryctolagus sp.; conditions: reproduction developmental; histopathology: nonneoplastic
[9] = tested on: Rattus norvegicus
[10] = tested on: Tagia sp.
[11] = tested on: Zea sp.; conditions: not reported; seedling emergence
[12] = tested on: Aphidius rhopalosiphi; assay: LR50; higher = less toxic; conditions: not reported; mortality
[13] = tested on: Typhlodromus pyri; assay: LR50; higher = less toxic; conditions: not reported; mortality

`CC1=NNC(=O)N(/N=C/c2cccnc2)C1` [Pymetrozine] gave an LD50 [1] of at least 2000 mg/kg-day, an LD50 ([2]; dermal) of over 100 µg/piece and an LD50 ([2]; oral, unspecified) of over 62.7 µg/piece. The NOAEL [3] was 0.57 mg/kg-day, the NOEL [4] was 21.8 mg/kg-day and the NOEC [5] was 0.025 mg/L. The NOEC [6] was 1000 mg/kg, the NOEC [7] was 11.7 mg/L and the NOAEL [8] was 10 mg/kg-day. For the same compound, the LD50 ([9]; acute, mortality) was 3590 mg/kg-day, the NOAEL ([9]; reproduction developmental, reproduction) was at least 110 mg/kg-day and the NOAEL ([9]; subchronic, duration: 90 days, oral, clinical chemistry) was 33 mg/kg-day. For the same compound, the LC50 ([10]; acute, duration: 14 days, mortality) was 1100 mg/kg, the NOEC ([10]; chronic/long-term, duration: 8 weeks) was 0.00139 g/ha and the NOEC [11] was 150 g/ha. It also gave an LR50 [12] of 75 g/ha and an LR50 [13] of over 1200 g/ha.
